ChEMBL document CHEMBL5370654, “Discovery of 3-Phenyl Indazole-Based Novel Chemokine-like Receptor 1 Antagonists for the Treatment of Psoriasis” (J Med Chem, 2023)
Values belong to the compound of their own block, whether it stands above or below them. Calls of active or inactive are those of the source. No cut-off for these calls is given here.

Experiments:
[1] = biological target: T1, Chemerin-like receptor 1 (Homo sapiens, UniProt Q99788); experiment: Antagonist activity at human CMKLR1
T1 sequence (Q99788 whole entry): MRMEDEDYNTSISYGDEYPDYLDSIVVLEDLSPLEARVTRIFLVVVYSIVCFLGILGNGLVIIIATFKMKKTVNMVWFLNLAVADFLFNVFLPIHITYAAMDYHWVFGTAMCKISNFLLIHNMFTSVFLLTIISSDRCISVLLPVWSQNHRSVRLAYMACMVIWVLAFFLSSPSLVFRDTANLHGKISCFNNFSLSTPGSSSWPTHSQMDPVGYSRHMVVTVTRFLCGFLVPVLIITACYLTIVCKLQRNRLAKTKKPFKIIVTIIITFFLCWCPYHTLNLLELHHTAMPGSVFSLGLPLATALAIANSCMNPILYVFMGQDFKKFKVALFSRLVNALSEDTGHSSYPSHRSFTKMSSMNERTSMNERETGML

[2] = biological target: T1, Chemerin-like receptor 1; experiment: Antagonist activity at human CMKLR1 expressed in CHO-K1 cells co-expressing Galpha-16 assessed as change in intracellular calcium concentration incubated for 30 mins in presence of chemerin-9 by FLIPR calcium 5 assay; assay type: functional, cell-based
[3] = Tmax in C57BL6 mouse at 10 mg/kg, po measured upto 24 hrs by LC-MS/MS analysis; assay type: ADME, organism-based; details: in vivo
[4] = Cmax in C57BL6 mouse at 10 mg/kg, po measured upto 24 hrs by LC-MS/MS analysis; assay type: ADME, organism-based; set-up: dose 10 mg/kg, time < 24 hrs, route po; details: in vivo
[5] = AUClast in C57BL6 mouse at 10 mg/kg, po measured upto 24 hrs by LC-MS/MS analysis; assay type: ADME, organism-based; set-up: dose 10 mg/kg, time < 24 hrs, route po; details: in vivo
[6] = Toxicity in imiquimod-induced BALB/c mouse psoriasis model assessed as change in body weight at 0.4 mg/kg, po qd administered for 7 days; assay type: organism-based; details: in vivo, 168 h, time 7 day
[7] = system: Mus musculus; experiment: Antiinflammatory activity against imiquimod-induced BALB/c mouse psoriasis model assessed as reduction in epidermal proliferation in mouse back skin at 0.4 mg/kg, po qd administered for 7 days by hematoxylin and eosin staining based analysis; assay type: functional, organism-based; details: time 7.0 day
[8] = Cmax in C57BL6 mouse at 30 mg/kg, po measured upto 24 hrs by LC-MS/MS analysis; assay type: ADME, organism-based; set-up: dose 30 mg/kg, time < 24 hrs, route po; details: in vivo
[9] = Toxicity in imiquimod-induced BALB/c mouse psoriasis model assessed as change in body weight at 30 mg/kg, po qd administered for 7 days; assay type: organism-based; details: in vivo, 168 h, time 7 day
[10] = Tmax in C57BL6 mouse at 30 mg/kg, po measured upto 24 hrs by LC-MS/MS analysis; assay type: ADME, organism-based; details: in vivo
[11] = AUClast in C57BL6 mouse at 30 mg/kg, po measured upto 24 hrs by LC-MS/MS analysis; assay type: ADME, organism-based; set-up: dose 30 mg/kg, time < 24 hrs, route po; details: in vivo

SMILES: CC[C@@H](O)/C=C/C=C\C[C@@H](O)/C=C/C=C/C=C\[C@@H](O)CCCC(=O)O [RESOLVIN E1]
EC50 [1]: 1 nM

SMILES: CC(CC(=O)O)c1ccc(OCc2ccc3c(-c4cc(Cl)c(CO)c(Cl)c4)nn(C4CCCC4)c3c2)cc1 (racemic)
Tmax [3]: 30 min
Cmax [4]: 2600 ng/mL
AUC(0-t) at 24 h [5]: 11700 ng·h/mL

SMILES: CN(Cc1cnc2nc(N)nc(N)c2n1)c1ccc(C(=O)N[C@@H](CCC(=O)O)C(=O)O)cc1 [METHOTREXATE]
Activity [6]: Non-Toxic
Activity [7]: Active

SMILES: C[C@@H](CC(=O)O)c1ccc(OCc2cc(F)c3c(-c4cc(Cl)c(CO)c(Cl)c4)nn(C4CCCC4)c3c2)cc1
Cmax [8]: 7900 ng/mL
Activity [9]: Non-Toxic
Tmax [10]: 2 h
AUC(0-t) at 24 h [11]: 64100 ng·h/mL

SMILES: CC(C)n1nc(-c2ccccc2)c2ccc(COc3ccc([C@@H](C)CC(=O)O)cc3)cc21
IC50 [1]: 5.75 µM

SMILES: CC(CC(=O)O)c1ccc(OCc2ccc3c(-c4ccc(Cl)cc4)nn(C4CCCC4)c3c2)cc1 (racemic)
IC50 [2]: 2290 nM

SMILES: CC(CC(=O)O)c1ccc(OCc2ccc3c(-c4cccc(O)c4)nn(C4CCCC4)c3c2)cc1 (racemic)
IC50 [2]: 2570 nM

SMILES: C[C@@H](CC(=O)O)c1ccc(OCc2ccc3c(-c4ccc(O)c(O)c4)nn(C4CCCC4)c3c2)cc1
IC50 [2]: 2090 nM

SMILES: C[C@@H](CC(=O)O)c1ccc(OCc2ccc3c(-c4ccc(O)c([N+](=O)[O-])c4)nn(C4CCCC4)c3c2)cc1
IC50 [2]: 1700 nM

SMILES: Cc1ccc(-c2nn(C3CCCC3)c3cc(COc4ccc(C(C)CC(=O)O)cc4)ccc23)cc1 (racemic)
IC50 [2]: 2340 nM

Further compounds by falling IC50 [2], results first:

IC50 [2]: 1100 nM
SMILES: COc1ccc(-c2nn(C3CCCC3)c3cc(COc4ccc(C(C)CC(=O)O)cc4)ccc23)cc1 (racemic)

IC50 [2]: 676 nM
SMILES: C[C@@H](CC(=O)O)c1ccc(OCc2ccc3c(-c4ccc(O)cc4Cl)nn(C4CCCC4)c3c2)cc1

IC50 [2]: 525 nM
SMILES: C[C@@H](CC(=O)O)c1ccc(OCc2ccc3c(-c4cc(Cl)c(O)cc4Cl)nn(C4CCCC4)c3c2)cc1

IC50 [2]: 513 nM
SMILES: C[C@@H](CC(=O)O)c1ccc(OCc2ccc3c(-c4cc(F)c(O)cc4F)nn(C4CCCC4)c3c2)cc1

Tmax [3]: 30 min
Cmax [4]: 225 ng/mL
IC50 [2]: 309 nM
AUC(0-t) at 24 h [5]: 823 ng·h/mL
SMILES: CC(CC(=O)O)c1ccc(OCc2ccc3c(-c4cc(Cl)c(O)c(Cl)c4)nn(C4CCCC4)c3c2)cc1 (racemic)

IC50 [2]: 141 nM
SMILES: C[C@@H](CC(=O)O)c1ccc(OCc2ccc3c(-c4cc(Cl)c(O)c(Cl)c4)nn(C4CCCC4)c3c2)cc1

IC50 [2]: 53.7 nM
SMILES: C[C@@H](CC(=O)O)c1ccc(OCc2ccc3c(-c4cc(F)c(CO)c(F)c4)nn(C4CCCC4)c3c2)cc1

IC50 [2]: 19.1 nM
SMILES: C[C@@H](CC(=O)O)c1ccc(OCc2cc(F)c3c(-c4cc(Cl)c(O)c(Cl)c4)nn(C4CCCC4)c3c2)cc1
